From PubChem BioAssay (NCI)
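GI50: concentration for 50% inhibition of growth. Definition used: TGI = concentration required for complete inhibition of growth.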

Columns and labels:
Experiment in all cases: NCI anticancer screen, dose series, 384-well format
ACHN renal = test system: ACHN renal
NCI-H460 NSCLC = test system: NCI-H460 NSCLC
HL-60(TB) leukemia = test system: HL-60(TB) leukemia
DU-145 prostate = test system: DU-145 prostate
SK-MEL-5 melanoma = test system: SK-MEL-5 melanoma
HOP-62 NSCLC = test system: HOP-62 NSCLC
MDA-MB-435 melanoma = test system: MDA-MB-435 melanoma
RXF 393 renal = test system: RXF 393 renal
MDA-MB-231 breast = test system: MDA-MB-231 breast
HT29 colon = test system: HT29 colon
OVCAR-5 ovarian = test system: OVCAR-5 ovarian
SR leukemia = test system: SR leukemia
HCT-116 colon = test system: HCT-116 colon
HCT-15 colon = test system: HCT-15 colon
PC-3 prostate = test system: PC-3 prostate
K-562 leukemia = test system: K-562 leukemia
UACC-62 melanoma = test system: UACC-62 melanoma
SF-539 CNS = test system: SF-539 CNS
CAKI-1 renal = test system: CAKI-1 renal
HS 578T breast = test system: HS 578T breast
MDA-MB-468 breast = test system: MDA-MB-468 breast
NCI-H522 lung = test system: NCI-H522 lung
COLO 205 colon = test system: COLO 205 colon
MOLT-4 leukemia = test system: MOLT-4 leukemia
SK-MEL-28 melanoma = test system: SK-MEL-28 melanoma
A549 NSCLC = test system: A549 NSCLC
BT-549 breast = test system: BT-549 breast
TK-10 renal = test system: TK-10 renal
MCF7 breast = test system: MCF7 breast
EKVX NSCLC = test system: EKVX NSCLC
OVCAR-4 ovarian = test system: OVCAR-4 ovarian
786-0 renal = test system: 786-0 renal
SK-MEL-2 melanoma = test system: SK-MEL-2 melanoma
SNB-75 CNS = test system: SNB-75 CNS
SW-620 colon = test system: SW-620 colon
UACC-257 melanoma = test system: UACC-257 melanoma
NCI-H226 lung = test system: NCI-H226 lung
CCRF-CEM leukemia = test system: CCRF-CEM leukemia
HCC-2998 colon = test system: HCC-2998 colon
SNB-19 CNS = test system: SNB-19 CNS
OVCAR-8 ovarian = test system: OVCAR-8 ovarian
MALME-3M melanoma = test system: MALME-3M melanoma
SN12C renal = test system: SN12C renal
LOX IMVI melanoma = test system: LOX IMVI melanoma
M14 melanoma = test system: M14 melanoma
T-47D breast = test system: T-47D breast
NCI/ADR-RES ovarian = test system: NCI/ADR-RES ovarian

Work on Cn1c(Nc2ccc(C(F)(F)F)cc2)nc2cc(Oc3ccnc(-c4ncc(C(F)(F)F)[nH]4)c3)ccc21 yielded a GI50 (ACHN renal) of 20.5 nM, a TGI (ACHN renal) of 11300 nM and a GI50 (NCI-H460 NSCLC) of 237 nM. It also gave a TGI (NCI-H460 NSCLC) of 10300 nM, a GI50 (HL-60(TB) leukemia) of 38.6 nM and a TGI (HL-60(TB) leukemia) of 1070 nM. For the same compound, the GI50 (DU-145 prostate) was 35.2 nM, the TGI (DU-145 prostate) was 13600 nM and the GI50 (SK-MEL-5 melanoma) was 70.4 nM. It also gave a TGI (SK-MEL-5 melanoma) of 617 nM, a GI50 (HOP-62 NSCLC) of 608 nM and a TGI (HOP-62 NSCLC) of 11400 nM. For the same compound, the GI50 (MDA-MB-435 melanoma) was 47.6 nM, the TGI (MDA-MB-435 melanoma) was 5880 nM and the GI50 (RXF 393 renal) was 15.9 nM. It also gave a TGI (RXF 393 renal) of 348 nM, a GI50 (MDA-MB-231 breast) of 36.7 nM and a TGI (MDA-MB-231 breast) of 1800 nM. The GI50 (HT29 colon) was 396 nM, the TGI (HT29 colon) was 13700 nM and the GI50 (OVCAR-5 ovarian) was 1430 nM. For the same compound, the TGI (OVCAR-5 ovarian) was 13100 nM, the GI50 (SR leukemia) was 270 nM and the TGI (SR leukemia) was 2110 nM. The GI50 (HCT-116 colon) was 62.5 nM, the TGI (HCT-116 colon) was 3550 nM and the GI50 (HCT-15 colon) was 53.7 nM. The TGI (HCT-15 colon) was 10300 nM, the GI50 (PC-3 prostate) was 833 nM and the TGI (PC-3 prostate) was 12300 nM. For the same compound, the GI50 (K-562 leukemia) was 630 nM, the TGI (K-562 leukemia) was 2130 nM and the GI50 (UACC-62 melanoma) was 27 nM. For the same compound, the TGI (UACC-62 melanoma) was 462 nM, the GI50 (SF-539 CNS) was 346 nM and the TGI (SF-539 CNS) was 7740 nM. For the same compound, the GI50 (CAKI-1 renal) was 15.7 nM, the TGI (CAKI-1 renal) was 12400 nM and the GI50 (HS 578T breast) was 39.1 nM. For the same compound, the TGI (HS 578T breast) was 6250 nM, the GI50 (MDA-MB-468 breast) was 74.1 nM and the TGI (MDA-MB-468 breast) was 825 nM. The GI50 (NCI-H522 lung) was 55.6 nM, the TGI (NCI-H522 lung) was 11000 nM and the GI50 (COLO 205 colon) was 122 nM. The TGI (COLO 205 colon) was 1420 nM, the GI50 (MOLT-4 leukemia) was 55.3 nM and the TGI (MOLT-4 leukemia) was 197 nM. The GI50 (SK-MEL-28 melanoma) was 46 nM, the TGI (SK-MEL-28 melanoma) was 408 nM and the GI50 (A549 NSCLC) was 254 nM. The TGI (A549 NSCLC) was 12400 nM, the GI50 (BT-549 breast) was 182 nM and the TGI (BT-549 breast) was 11300 nM. The GI50 (TK-10 renal) was 89.6 nM, the TGI (TK-10 renal) was 11800 nM and the GI50 (MCF7 breast) was 1590 nM. It also gave a TGI (MCF7 breast) of 6670 nM, a GI50 (EKVX NSCLC) of 983 nM and a TGI (EKVX NSCLC) of 4910 nM. The GI50 (OVCAR-4 ovarian) was 454 nM, the TGI (OVCAR-4 ovarian) was 11700 nM and the GI50 ([…]-0 renal) was 615 nM. For the same compound, the TGI (786-0 renal) was 6250 nM, the GI50 (SK-MEL-2 melanoma) was 23.8 nM and the TGI (SK-MEL-2 melanoma) was 101 nM. It also gave a GI50 (SNB-75 CNS) of 71.1 nM, a TGI (SNB-75 CNS) of 13000 nM and a GI50 (SW-620 colon) of 873 nM. The TGI (SW-620 colon) was 12500 nM, the GI50 (UACC-257 melanoma) was 137 nM and the TGI (UACC-257 melanoma) was 1510 nM. It also gave a GI50 (NCI-H226 lung) of 1500 nM, a TGI (NCI-H226 lung) of 19200 nM and a GI50 (CCRF-CEM leukemia) of 231 nM. For the same compound, the TGI (CCRF-CEM leukemia) was 1170 nM, the GI50 (HCC-2998 colon) was 88.3 nM and the TGI (HCC-2998 colon) was 5620 nM. For the same compound, the GI50 (SNB-19 CNS) was 359 nM, the TGI (SNB-19 CNS) was 19800 nM and the GI50 (OVCAR-8 ovarian) was 493 nM. For the same compound, the TGI (OVCAR-8 ovarian) was 10600 nM, the GI50 (MALME-3M melanoma) was 14.4 nM and the TGI (MALME-3M melanoma) was 44.3 nM. It also gave a GI50 (SN12C renal) of 46.4 nM, a TGI (SN12C renal) of 11800 nM and a GI50 (LOX IMVI melanoma) of 54.7 nM. For the same compound, the TGI (LOX IMVI melanoma) was 1540 nM, the GI50 (M14 melanoma) was 18.4 nM and the TGI (M14 melanoma) was 332 nM. For the same compound, the GI50 (T-47D breast) was 274 nM, the TGI (T-47D breast) was 9060 nM and the GI50 (NCI/ADR-RES ovarian) was 567 nM. For the same compound, the TGI (NCI/ADR-RES ovarian) was 2840 nM.
